Experimental findings from patent US5622962A, “5α-reductase inhibitors” (priority 1995, dated 1997) are described below.

Assay [1] addresses T1, Type II 5α-Reductase from Human Prostate (Homo sapiens, UniProt P31213).
T1 construct: The same procedure as above was used for preparations using tissue from prostate surgery; from tissue; host or cells: human prostate tissue from surgery, homogenate, 100,000×g pellet
T1 sequence (P31213 1-254): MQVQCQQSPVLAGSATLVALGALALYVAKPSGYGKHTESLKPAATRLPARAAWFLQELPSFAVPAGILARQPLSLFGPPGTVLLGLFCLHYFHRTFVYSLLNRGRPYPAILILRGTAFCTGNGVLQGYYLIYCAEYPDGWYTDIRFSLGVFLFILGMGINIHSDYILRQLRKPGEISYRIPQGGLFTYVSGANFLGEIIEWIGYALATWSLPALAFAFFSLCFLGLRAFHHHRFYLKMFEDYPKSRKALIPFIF
Briefly: Human Type II 5α-reductase assay (conversion of [3H]-testosterone to 5α-reduced metabolites). The format is biochemical. Conditions: for percent inhibition of Type II AR: 0.3 μM.

Assay [2] has as its target T2, Type I 5α-Reductase from Human Scalp (Homo sapiens, UniProt P18405).
T2 construct: Scalp punch biopsies from graft recipient sites were obtained from human hair transplant procedures; from tissue; host or cells: human scalp punch biopsies (hair transplant graft recipient sites), homogenate, 100,000×g pellet
T2 sequence (P18405 1-259): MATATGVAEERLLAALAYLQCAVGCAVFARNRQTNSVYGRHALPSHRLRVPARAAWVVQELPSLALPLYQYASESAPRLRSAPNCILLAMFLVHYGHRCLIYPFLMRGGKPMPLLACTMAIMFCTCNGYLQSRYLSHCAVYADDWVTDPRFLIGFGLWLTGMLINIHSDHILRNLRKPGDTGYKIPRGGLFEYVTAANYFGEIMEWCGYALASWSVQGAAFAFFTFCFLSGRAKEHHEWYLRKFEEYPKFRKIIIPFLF
Nature of the assay: Human Type I 5α-reductase assay (conversion of [3H]-testosterone to 5α-reduced metabolites). The format is biochemical.

The mark [3] stands for this setting: pH 5.5, 0.3 μM, sodium acetate pH 5.5, 25°, 30 min, compared to control reaction mixtures, read-out: percent inhibition of Type II AR.
The mark [4] stands for this setting: pH 7.5, 0.3 μM, 50 nM [3H]-testosterone, pH 7.5, 25°, 180 min, compared to control reaction mixtures, read-out: percent inhibition of Type I AR.
[5] abbreviates: sodium acetate pH 5.5, 25°, 30 min, compared to control reaction mixtures.

Like-named read-outs stand apart in the source and are kept apart here.

`CN1C(=O)CC[C@]2(C)c3ccc(SCc4nc5ccccc5s4)cc3CC[C@@H]12` [Example 192, (+)-(4aR)-(10bR)-8-(2-benzothiazolylmethylthio)-4,10b-dimethyl-1,2,3,4,4a,5,6,10b-octahydrobenzo[f]quinoline-3-one]: the results for the inhibition at 0.3 µM in assay [1] (setting [3]) and in assay [2] (setting [4]) were 33% and 80%, respectively.

`CN1C(=O)CC[C@]2(C)c3ccc(SC(c4ccccc4)c4ccccc4)cc3CC[C@@H]12` [Example 195, (4aR)-(10bR)-8-diphenylmethylthio-4,10b-dimethyl-1,2,3,4,4a,5,6,10b-octahydrobenzo[f]-quinoline-3-one]: the results for the inhibition at 0.3 µM in assay [1] (setting [3]) and in assay [2] (setting [4]) were 71% and 90%, respectively.

Turning to `CN1C(=O)CC[C@]2(C)c3ccc(-c4cncc5ccccc45)cc3CC[C@@H]12` [Example 200, (+)-(4aR)-(10bR)-4-methyl-8-(4-isoquinolinyl)-10b-methyl-1,2,3,4,4a,5,6,10b-octahydrobenzo [f]quinolin-3-one], the “percent inhibition of Type II AR” value in assay [1] (setting [5]) came to 64%. Moreover, the inhibition at 0.3 µM is 72% in assay [1] (setting [3]) and 59% in assay [2] (setting [4]).

Take `CN1C(=O)CC[C@]2(C)c3ccc(-c4cnc5ccccc5c4)cc3CC[C@@H]12` [Example 201, (+)-(4aR)-(10bR)-4-methyl-8-(3-quinolinyl)-10b-methyl-1,2,3,4,4a,5,6,10b-octahydrobenzo[f]quinolin-3-one]: the “percent inhibition of Type II AR” value in assay [1] (setting [5]) is recorded as 57%. Also, the inhibition at 0.3 µM in assay [1] (setting [3]) was determined as 60%; in assay [2] (setting [4]), 69%.

`CN1C(=O)CC[C@]2(C)c3ccc(-c4ccc([N+](=O)[O-])cn4)cc3CC[C@@H]12` [Example 202, (+)-(4aR)-(10bR)-4-methyl-8-(5-nitro-2-pyridinyl)-10b-methyl-1,2,3,4,4a,5,6,10b-octahydrobenzo[f]quinolin-3-one]: the results for the inhibition at 0.3 µM in assay [1] (setting [3]) and in assay [2] (setting [4]) were 48% and 41%, respectively.

For the molecule `CN1C(=O)CC[C@]2(C)c3ccc(-c4cc(C(F)(F)F)nc5c(C(F)(F)F)cccc45)cc3CC[C@@H]12` [Example 203, (+)-(4aR)-(10bR)-4-methyl-8-[2,8-bis(trifluoromethyl)-4-quinolinyl]-10b-methyl-1,2,3,4,4a,5,6,10b-octahydrobenzo[f]-quinolin-3-one], the inhibition at 0.3 µM in assay [1] (setting [3]) came out at 34%; in assay [2] (setting [4]) it was 8%.

Turning to `CN1C(=O)CC[C@]2(C)c3ccc(-c4ccc(S(C)(=O)=O)cc4)cc3CC[C@@H]12` [Example 204, (+)-(4aR)-(10bR)-4-methyl-8-(4-methylsulfonylphenyl)-10b-methyl-1,2,3,4,4a,5,6,10b-octahydrobenzo[f]quinolin-3-one], the inhibition at 0.3 µM in assay [1] (setting [3]) turned out to be 39%; in assay [2] (setting [4]), 34%.

On to `CN1C(=O)CC[C@]2(C)c3ccc(-c4c(F)c(F)c(F)c(F)c4F)cc3CC[C@@H]12` [Example 205, (+)-(4aR)-(10bR)-4-methyl-8-(2,3,4,5,6-pentafluorophenyl)-10b-methyl-1,2,3,4,4a,5,6,10b-octahydrobenzo[f]quinolin-3-one], for which the values for the inhibition at 0.3 µM in assay [1] (setting [3]) and in assay [2] (setting [4]) were 37% and 100%, respectively.

As to `CN1C(=O)CC[C@]2(C)c3ccc(-c4cc(F)c(F)c(F)c4)cc3CC[C@@H]12` [Example 206, (+)-(4aR)-(10bR)-4-methyl-8-(3,4,5-trifluorophenyl)-10b-methyl-1,2,3,4,4a,5,6,10b-octahydrobenzo[f]quinolin-3-one], the inhibition at 0.3 µM in assay [1] (setting [3]) worked out at 32%; in assay [2] (setting [4]) it was 97%. For the same molecule, the “percent inhibition of Type I AR” value in assay [2] (0.3 μM, 50 nM [3H]-testosterone, pH 7.5, 25°, 180 min, compared to control reaction mixtures) came to 100%.

Turning to `CN1C(=O)CC[C@]2(C)c3ccc(-c4ccc5c(c4)CCC5=O)cc3CC[C@@H]12` [Example 207, (+)-(4aR)-(10bR)-4-methyl-8-(1-oxo-5-indanyl)-10b-methyl-1,2,3,4,4a,5,6,10b-octahydrobenzo[f]quinolin-3-one], the inhibition at 0.3 µM in assay [1] (setting [3]) was 16%; in assay [2] (setting [4]) it was 45%.

In the case of `CN1C(=O)CC[C@]2(C)c3ccc(-c4cccc(C(F)(F)F)c4F)cc3CC[C@@H]12` [Example 208, (+)-(4aR)-(10bR)-4-methyl-8-(2-fluoro-3-trifluoromethyl-phenyl)-10b-methyl-1,2,3,4,4a,5,6,10b-octahydrobenzo[f]-quinolin-3-one], the inhibition at 0.3 µM stood at 10% in assay [1] (setting [3]) and 77% in assay [2] (setting [4]).

As to `CN1C(=O)CC[C@]2(C)c3ccc(-c4cccc(C(=O)NC5CCN(Cc6ccccc6)CC5)c4)cc3CC[C@@H]12` [Example 209, (+)-(4aR)-(10bR)-4-methyl-8-(3-[1-benzyl-4-piperidinylcarboxamido]phenyl)-10b-methyl-1,2,3,4,4a,5,6,10b-octahydrobenzo[f]quinolin-3-one], the inhibition at 0.3 µM was determined as 11% in assay [1] (setting [3]) and 24% in assay [2] (setting [4]).

Turning to `CN1C(=O)CC[C@]2(C)c3ccc(-c4ccc(C(F)(F)F)cc4F)cc3CC[C@@H]12` [Example 210, (+)-(4aR)-(10bR)-4-methyl-8-(2-fluoro-4-trifluoromethylphenyl)-10b-methyl-1,2,3,4,4a,5,6,10b-octahydrobenzo[f]-quinolin-3-one], the inhibition at 0.3 µM was found to be 38% in assay [1] (pH 5.5, read-out: percent inhibition of Type II AR) and 81% in assay [2] (pH 7.5, read-out: percent inhibition of Type I AR).

For `CN1C(=O)CC[C@]2(C)c3ccc(-c4cc(C(F)(F)F)ccc4F)cc3CC[C@@H]12` [Example 211, (+)-(4aR)-(10bR)-4-methyl-8-(2-fluoro-5-trifluoromethylphenyl)-10b-methyl-1,2,3,4,4a,5,6,10b-octahydrobenzo[f]-quinolin-3-one quinolin-3-one], the inhibition at 0.3 µM in assay [1] (setting [3]) is 29%; in assay [2] (setting [4]), 70%.

As to `CSc1cccc(-c2ccc3c(c2)CC[C@H]2N(C)C(=O)CC[C@]32C)c1` [Example 212, (+)-(4aR)-(10bR)-4-methyl-8-(3-methylthiophenyl)-10b-methyl-1,2,3,4,4a,5,6,10b-octahydrobenzo[f]quinolin-3-one], the inhibition at 0.3 µM was 31% in assay [1] (setting [3]) and 73% in assay [2] (setting [4]).

In the case of `CN1C(=O)CC[C@]2(C)c3ccc(-c4ccc(C(N)=O)cc4)cc3CC[C@@H]12` [Example 213, (+)-(4aR)-(10bR)-4-methyl-8-(4-carboxamidophenyl)-10b-methyl-1,2,3,4,4a,5,6,10b-octahydrobenzo[f]quinolin-3-one], the figures for the inhibition at 0.3 µM in assay [1] (setting [3]) and in assay [2] (setting [4]) were 28% and 64%, respectively.

As to `CCN(CC)C(=O)c1cc2cc(-c3ccc4c(c3)CC[C@H]3N(C)C(=O)CC[C@]43C)ccc2oc1=O` [Example 214, (+)-(4aR)-(10bR)-4-methyl-8-[2-oxo-3-(N,N-diethylcarboxamido)-1-2H-benzopyran-6-yl)-10b-methyl-1,2,3,4,4a,5,6,10b-octahydrobenzo[f]quinolin-3-one], the figures for the inhibition at 0.3 µM in assay [1] (setting [3]) and in assay [2] (setting [4]) were 29% and 26%, respectively.

Regarding `CN1C(=O)CC[C@]2(C)c3ccc(-c4ccc(NC(=O)C(C)(C)C)nc4)cc3CC[C@@H]12` [Example 215, (+)-(4aR)-(10bR)-4-methyl-8-[2-(t-butylcarbonylamino)-5-pyridinyl]-10b-methyl-1,2,3,4,4a,5,6,10b-octahydrobenzo[f]-quinolin-3-one], the inhibition at 0.3 µM is 42% in assay [1] (setting [3]) and 84% in assay [2] (setting [4]).

For `CN1C(=O)CC[C@]2(C)c3ccc(-c4cc(F)cc(C(F)(F)F)c4)cc3CC[C@@H]12` [Example 216, (+)-(4aR)-(10bR)-4-methyl-8-(3-fluoro-5-trifluoromethylphenyl)-10b-methyl-1,2,3,4,4a,5,6,10b-octahydrobenzo[f]-quinolin-3-one], the inhibition at 0.3 µM in assay [1] (setting [3]) was 24%; in assay [2] (setting [4]) it was 78%.

On to `CN1C(=O)CC[C@]2(C)c3ccc(-c4ccc([N+](=O)[O-])s4)cc3CC[C@@H]12` [Example 217, (+)-(4aR)-(10bR)-4-methyl-8-(5-nitro-2-thienyl)-10b-methyl-1,2,3,4,4a,5,6,10b-octahydrobenzo[f]quinolin-3-one], for which the inhibition at 0.3 µM in assay [1] (setting [3]) came to 33%; in assay [2] (setting [4]), 93%.

`CN1C(=O)CC[C@]2(C)c3ccc(-c4ccc(Cl)s4)cc3CC[C@@H]12` [Example 218, (+)-(4aR)-(10bR)-4-methyl-8-(5-chloro-2-thienyl)-10b-methyl-1,2,3,4,4a,5,6,10b-octahydrobenzo[f]quinolin-3-one]: the inhibition at 0.3 µM in assay [1] (setting [3]) is 35%; in assay [2] (setting [4]), 84%.

For the molecule `CN1C(=O)CC[C@]2(C)c3ccc(-c4ccc(Cl)c(F)c4)cc3CC[C@@H]12` [Example 219, (+)-(4aR)-(10bR)-4-methyl-8-(4-chloro-3-fluorophenyl)-10b-methyl-1,2,3,4,4a,5,6,10b-octahydrobenzo[f]quinolin-3-one], the inhibition at 0.3 µM in assay [1] (setting [3]) worked out at 30%; in assay [2] (setting [4]), 91%.
